Data on five molecules can be found in publication PMC12197275, “Preclinical Pharmacokinetic Evaluation of Mithramycin and Mithramycin SA Tryptophan-Conjugated Analog” (Pharmaceutics, 2025).

For data set [1] the following is noted: cited from earlier work.
The conditions of data set [2]: male monkey n=1, high microdose cassette: MTM 13.18 µg/kg, MTMSA-Trp 4.19 µg/kg, IV infusion.
Method: Two separate cassette dosing PK studies were conducted using male cynomolgus monkeys. […] The blood samples were processed and stored as described above.
(§1) All samples were processed and analyzed by LC-MS/MS using a bioanalytical method validated according to the FDA’s Bioanalytical Guidance, essentially as described by Eckenrode et al. with some modifications [15]. […] Plasma samples above the calibration curve range were diluted, along with quality control (QC) samples, and values were accepted when the interpolated concentrations were within 15% of the nominal values. The expected % recovery for both compounds was >90% [15, 16]. Analyte separation and detection were performed on a Sciex Exion HPLC system equipped with a C18 analytical column (Phenomenex Synergi 4 µm Fusion-RP 80A; 50 mm × 2 mm with a guard column) and coupled to a hybrid triple-quadrupole/linear ion trap mass spectrometer (Sciex QTrap 6500+ or 7500+, Framingham, MA, USA). A 0.6 mL/min gradient of 0.005% formic acid in water and 0.005% formic acid in acetonitrile was used to elute the analytes within a 5 min time window. […] The internal standard was the MTM oxime–tryptophan [5]. The instruments were controlled and the data were integrated and processed using Sciex OS software version 3.3.1.43.
Details of data set [3]: method as in doi:10.1158/1535-7163.TARG-23-B150. To be noted: across different multi-day dosing schedules; cited from earlier work.
Data set [4] can be described thus: Stability of dosing solutions. Particulars: […]; 5% Solutol HS-15/95% PBS pH 8).
The nature of data set [5]: Plasma PK in male athymic nude mice, IV bolus 2 mg/kg (Study 1). To be noted: male mouse, 2 mg/kg IV bolus.
Method: Four separate PK studies were conducted using nu/nu mice. For studies using destructive sampling, the animals were anesthetized under isoflurane gas and samples were collected through intracardiac puncture in heparinized syringes. […] Blood samples were collected (n = 3 mice/time point) by cardiac puncture at 5 and 30 min and at 1.5, 3, and 6 h. […] Blood samples (n = 3 mice/time point) were collected by cardiac puncture at 5 min, 30 min, 2 h, and 5 h. […] Three groups (n = 9/group) of nu/nu mice were dosed at 0.3 mg/kg, 1 mg/kg, and 3 mg/kg. The mice at each dose level were randomized into three groups of three mice. The sampling time points for the three doses were as follows: 10 min, 20 min, 30 min, 45 min, 1 h, 1.5 h, 2 h, 2.5 h, and 3 h for the 0.3 mg/kg group; 5 min, 15 min, 30 min, 1 h, 2 h, 3 h, 4 h, 6 h, and 8 h for the 1 mg/kg group; and 5 min, 15 min, 30 min, 1 h, 2 h, 4 h, 6 h, 9 h, and 12 h for the 3 mg/kg group. […] Blood samples (n = 2 mice/time point) were collected by cardiac puncture at 10 min, 30 min, 1 h, 3 h, and 6 h. After collection, blood samples were immediately centrifuged at 4000 g for 2 min, and plasma samples were immediately collected and placed on dry ice, followed by storage at −80 °C until analysis.
Plasma samples above the calibration curve range were diluted, along with quality control (QC) samples, and values were accepted when the interpolated concentrations were within 15% of the nominal values.
Data set [6] relates to plasma from Sprague Dawley rats. As to the kind of experiment: Plasma protein binding by rapid equilibrium dialysis, rat plasma. Background: In equilibrium dialysis only unbound substance equilibrates across the membrane.
Method: (§2) Protein binding was assessed in plasma derived from athymic nude (nu/nu) mice, Sprague Dawley rats, Cynomolgus monkeys, and humans. Plasma from athymic nude mice and Sprague Dawley rats was collected from animals housed locally. […] Plasma was collected by centrifuging the whole blood immediately upon collection, stored at 4 °C, and used within one week of storage for protein binding studies. The plasma was spiked with the compound to prepare 1, 3, and 10 µM final concentrations (0.1% DMSO (v/v)). Spiked plasma (100 µL) and PBS (350 µL) were placed in their respective chambers in the Pierce™ RED Device (12K MWCO; Linden Bioscience, Research Triangle Park, NC, USA) and incubated in a Talboys microplate shaker at 37 °C and 250 rpm for 4 h to achieve equilibrium. Post-dialysis samples were collected from the plasma and buffer chambers, matrix-matched with PBS and plasma, respectively, and analyzed by LC-MS/MS as detailed below. The experiments were performed in triplicate, and the unbound percentage was calculated based on the following equation [13]: fu=PBS chamber area ratio/Plasma chamber area ratio;Area ratio=analyte area/ISTD area
(§3) All samples were processed and analyzed by LC-MS/MS using a bioanalytical method validated according to the FDA’s Bioanalytical Guidance, essentially as described by Eckenrode et al. with some modifications [15]. […] Plasma samples above the calibration curve range were diluted, along with quality control (QC) samples, and values were accepted when the interpolated concentrations were within 15% of the nominal values. […] Analyte separation and detection were performed on a Sciex Exion HPLC system equipped with a C18 analytical column (Phenomenex Synergi 4 µm Fusion-RP 80A; 50 mm × 2 mm with a guard column) and coupled to a hybrid triple-quadrupole/linear ion trap mass spectrometer (Sciex QTrap 6500+ or 7500+, Framingham, MA, USA). A 0.6 mL/min gradient of 0.005% formic acid in water and 0.005% formic acid in acetonitrile was used to elute the analytes within a 5 min time window. […] The internal standard was the MTM oxime–tryptophan [5]. […]
In data set [7] the test system is plasma from athymic nude (nu/nu) mice. Kind of data set: Plasma protein binding by rapid equilibrium dialysis, mouse plasma. To be noted: for Fraction Unbound (%): athymic nude mouse plasma.
Method: as §2
(§4) All samples were processed and analyzed by LC-MS/MS using a bioanalytical method validated according to the FDA’s Bioanalytical Guidance, essentially as described by Eckenrode et al. with some modifications [15]. […] Plasma samples above the calibration curve range were diluted, along with quality control (QC) samples, and values were accepted when the interpolated concentrations were within 15% of the nominal values. […] Analyte separation and detection were performed on a Sciex Exion HPLC system equipped with a C18 analytical column (Phenomenex Synergi 4 µm Fusion-RP 80A; 50 mm × 2 mm with a guard column) and coupled to a hybrid triple-quadrupole/linear ion trap mass spectrometer (Sciex QTrap 6500+ or 7500+, Framingham, MA, USA). A 0.6 mL/min gradient of 0.005% formic acid in water and 0.005% formic acid in acetonitrile was used to elute the analytes within a 5 min time window. […] The internal standard was the MTM oxime–tryptophan [5]. The instruments were controlled and the data were integrated and processed using Sciex OS software version 3.3.1.43.
A further data set concerns human plasma. As to the kind of experiment: Plasma protein binding by rapid equilibrium dialysis, human plasma.
In data set [8] the test system is plasma from Cynomolgus monkeys. Kind of data set: Plasma protein binding by rapid equilibrium dialysis, monkey plasma. To be noted: Cynomolgus macaque plasma.
Method: as §2, §3
The nature of data set [9]: Plasma PK in male Sprague Dawley rats, IV bolus 0.5 mg/kg (Study 2). Particulars: male rat, 0.5 mg/kg IV bolus.
Method: Rat PK studies were conducted using male Sprague Dawley rats (Study 2; Table 1). […] Blood samples were collected at three different time points by saphenous bleeding. The collection time points were at 5 min and 20 min and at 1, 3, 6, and 9 h. The blood samples were processed and stored as described above.
as §1
(§5) Only concentrations above the limit of quantification were used for NCA. The linear-up log-down trapezoidal integration method was used to estimate the area under the curve from time zero to the last measurable concentration–time point (AUClast). The terminal elimination rate constant (ke) was estimated by log-linear regression using the last three data points of the concentration–time profiles.
Data set [10] is described as follows: Cassette microdose plasma PK in male athymic nude mice, 69 µg/kg (Study 5).
Method: as §1, §5
Data set [11] can be described thus: Cassette microdose plasma PK in male Sprague Dawley rats, 28 µg/kg (Study 6).
Method: as §1, §5
[12] abbreviates: female athymic nude mice, 0.3 mg/kg IV bolus.
The mark [13] stands for this setting: female athymic nude mice, 1 mg/kg IV bolus.
[14] abbreviates: female athymic nude mice, 3 mg/kg IV bolus.
Setting [15] is: female athymic nude mice, 5 mg/kg IV bolus.
The mark [16] stands for this setting: female athymic nude mice, 10 mg/kg IV bolus.
The mark [17] stands for this setting: male mouse, 69 µg/kg each, cassette IV bolus.
Where [18] appears, read: male rat, 28 µg/kg each, cassette IV bolus.

Where two headings read alike, the source gives them in different places.

Method for human plasma: as §2, §4

`CO[C@H](C(=O)C(C)=O)[C@@H]1Cc2cc3cc(OC4C[C@@H](OC5C[C@@H](O)[C@H](O)C(C)O5)[C@H](O)C(C)O4)c(C)c(O)c3c(O)c2C(=O)[C@H]1OC1C[C@@H](OC2C[C@@H](OC3C[C@](C)(O)[C@H](O)C(C)O3)[C@@H](O)C(C)O2)[C@H](O)C(C)O1` (some centres unmarked) [MTM-SDK]: the systemic clearance entry in [1] (in vivo) is recorded as “high systemic clearance”.
For the molecule `CO[C@H](C(O)C(C)=O)[C@@H]1Cc2cc3cc(OC4C[C@@H](OC5C[C@@H](O)[C@H](O)C(C)O5)[C@H](O)C(C)O4)c(C)c(O)c3c(O)c2C(=O)[C@H]1OC1C[C@@H](OC2C[C@@H](OC3C[C@](C)(O)[C@H](O)C(C)O3)[C@@H](O)C(C)O2)[C@H](O)C(C)O1` (some centres unmarked) [MTM-SK], the systemic clearance result in [1] (in vivo) is reported as “high systemic clearance”.
In the case of `CO[C@@H]([C@@H]1Cc2cc3cc(O[C@H]4CC(O[C@H]5CC(O)[C@H](O)C(C)O5)[C@H](O)C(C)O4)c(C)c(O)c3c(O)c2C(=O)[C@H]1O[C@H]1CC(O[C@H]2CC(O[C@H]3CC(O)[C@H](O)C(C)O3)[C@@H](O)C(C)O2)[C@H](O)C(C)O1)[C@@H](O)C(C)=O` (some centres unmarked) [EC-8042], in data set [1] (same as MTM), the systemic clearance result is “high systemic clearance”.
In the case of mithramycin SA-Trp [MTMSA-Trp], the “AUC0–inf” value in data set [2] is 181 ng·h/mL; the “AUC0–inf” value under setting [12] was found to be 4373 ng·h/mL; the “AUC0–inf” value under setting [13] is reported as 24,419 ng/mL·h; the “AUC0–inf” value under setting [14] is on record as 91,778 ng/mL·h; the “AUC0–inf” value under setting [16] was 216,281 ng/mL·h; the “AUC0–inf” value in [5] is 38,564 ng/mL·h. Besides, the “AUC0–inf” value in data set [9] came out at 3486 ng·h/mL; in data set [10] (setting [17]), 569 ng·h/mL; in [11] (setting [18]), 223 ng·h/mL. The same molecule yielded a CL in data set [2] of 0.383 mL/min/kg; a CL under setting [12] of 1.15 mL/min/kg; a CL under setting [13] of 0.683 mL/min/kg; a CL under setting [14] of 0.55 mL/min/kg; a CL under setting [15] of 0.6 mL/min/kg; a CL under setting [16] of 0.767 mL/min/kg. Also, the CL in data set [5] came to 0.867 mL/min/kg; in data set [9], 2.38 mL/min/kg; in data set [10] (setting [17]), 2.02 mL/min/kg; in [11] (setting [18]) it was 2.1 mL/min/kg. For the same molecule, the “Extrapolated AUC0–inf” value in data set [2] is reported as 4.99%; the “Extrapolated AUC0–inf” value under setting [12] is recorded as 0.4%; the “Extrapolated AUC0–inf” value under setting [13] was 0.2%; the “Extrapolated AUC0–inf” value under setting [14] is listed as 0.2%; the “Extrapolated AUC0–inf” value under setting [15] is given as 6.5%; the “Extrapolated AUC0–inf” value under setting [16] is 5.6%. The “Extrapolated AUC0–inf” value in data set [5] is listed as 8.07%; in data set [9], 1.43%; in data set [10] (setting [17]), 3.2%; in data set [11] (setting [18]), 8.4%. For the same molecule, the “Terminal t1/2” value came to 0.78 h in [2]; 1.85 h in data set [5]; 1.56 h in data set [9]; 1.8 h in data set [10] (setting [17]); 2.4 h in data set [11] (setting [18]). This molecule showed a Vd in data set [2] of 0.026 L/kg; a Vd under setting [12] of 0.045 L/kg; a Vd under setting [13] of 0.075 L/kg; a Vd under setting [14] of 0.123 L/kg; a Vd under setting [15] of 0.08 L/kg; a Vd under setting [16] of 0.081 L/kg. Besides, the Vd stood at 0.138 L/kg in [5], 0.324 L/kg in [9], 0.318 L/kg in [10] (setting [17]) and 0.428 L/kg in data set [11] (setting [18]). For the same molecule, the “estimated systemic clearance, average” value (average over 1, 3, 5, and 10 mg/kg, female athymic nude mice) is on record as “approximately 41 mL/h/kg”. For the same molecule, the t1/2 reads like this: under setting [12], 0.5 h; under setting [13], 1.3 h; under setting [14], 2.6 h; under setting [15], 1.5 h; under setting [16], 1.2 h. For the same molecule, the linear kinetics range (female athymic nude mice, IV bolus) was in the range of 1 to 10 mg/kg. Besides, the dose proportionality entry (mice, 1, 3, and 10 mg/kg doses) is recorded as “linear pharmacokinetics”. Besides, the maximum tolerated doses in data set [3] is 1 to 3 mg/kg. Further, the “stability of dosing solution following formulation” value in data set [4] is “at least 11 days”. Besides, the “Fraction Unbound (%)” value in [6] (1 µM) is 2.41 ± 1.29%; in [6] (3 µM), 3.85 ± 0.08%; in [6] (10 µM) it was 3.88 ± 0.54%; in [7] (1 µM) it was less than 1%; in data set [7] (3 µM), less than 1%; in [7] (10 µM) it was less than 1%. For the same molecule, the “Fraction Unbound (%)” value with human plasma (1 µM) was less than 1%; in the data set on human plasma (3 µM), less than 1%; with human plasma (10 µM), less than 1%; in [8] (1 µM), 1.03 ± 0.27%; in data set [8] (3 µM) it was 1.02 ± 0.09%; in [8] (10 µM) it was 1.14 ± 0.15%. Moreover, the unbound fraction is listed as less than 1% in data set [7] (nu/nu mouse plasma, across tested concentrations (1, 3, 10 µM)) and less than 1% in the data set on human plasma (across tested concentrations). The “change of systemic clearance between microgram- and milligram-level doses” value in data set [10] (mice, 69 µg/kg vs 2 mg/kg) is reported as “approximately 0.4 fold”; in data set [11] (rats, 28 µg/kg vs 0.5 mg/kg), “remained similar”.
In the case of `COC(=O)[C@H](Cc1c[nH]c2ccccc12)NC(=O)[C@H](Cc1ccccc1)NC(=O)CO/N=C(\[C@@H](O)[C@@H](C)O)[C@@H](OC)[C@@H]1Cc2cc3cc(O[C@H]4C[C@@H](O[C@H]5C[C@@H](O)[C@H](O)[C@@H](C)O5)[C@H](O)[C@@H](C)O4)c(C)c(O)c3c(O)c2C(=O)[C@H]1O[C@H]1C[C@@H](O[C@H]2C[C@@H](O[C@H]3C[C@](C)(O)[C@H](O)[C@@H](C)O3)[C@@H](O)[C@@H](C)O2)[C@H](O)[C@@H](C)O1` [MTMox32E], the systemic clearance entry in data set [1] (in vivo) is listed as “low systemic clearance”.

One may read the Vd as the apparent volume that relates the amount in the body to the concentration in plasma or blood.
